# Where two headings read alike, the source gives them in different places.
# Key:
# platelet aggregation = test: Inhibition of platelet aggregation in rabbit platelet-rich plasma (Born's turbimetry); format: cell-based; settings: Oryctolagus cuniculus
# Description: Using a syringe containing 3.8% sodium citrate solution (1 volume), 9 volumes of blood is drawn from the carotid artery of a rabbit. Said blood is centrifuged to give platelet-rich plasma (PRP: 7×10^5 /μl).
# In a cuvette is placed 250 ul of said PRP, followed by incubation in a thermostat at 37° C. for 2 min. Then, 20 μl of physiological saline buffer solution of a 2,4-pentadienoic acid derivative to be tested is added, and the mixture is incubated for 3 min. A platelet-aggregation inducer, an arachidonic acid solution, a collagen solution or an ADP solution is then added, and platelet aggregation is measured by the Born's turbimetry (which is described, for example, in Journal of Physiology, vol. 168, p. 178 (1968)). 50% Inhibitory concentration of the platelet aggregation caused by arachidonic acid (60 μmol), collagen (10 μg/ml) or ADP (5 μmol) is shown in Table 5 in comparison with prostaglandin I2, aspirin or dipyridamol.
# 50% Inhibitory concentration as indicated in Table 5 means the concentration of a 2,4-pentadienoic acid derivative needed for inhibiting the platelet aggregation by 50% by the introduction of said 2,4-pentadienoic acid derivative, taking the platelet aggregation in the absence of 2,4-pentadienoic acid derivatives of the invention as 100%.
# [1] = unstable vinylether group in the molecule; cited from earlier work
# [2] = aggregation induced by ADP (5 μmol), rabbit PRP, 37° C., 3 min preincubation, read-out: Antiplatelet activity, 50% Inhibitory concentration, ADP
# [3] = aggregation induced by arachidonic acid (60 μmol), rabbit PRP, 37° C., 3 min preincubation, read-out: Antiplatelet activity, 50% Inhibitory concentration, Arachidonic acid
# [4] = aggregation induced by collagen (10 μg/ml), rabbit PRP, 37° C., 3 min preincubation, read-out: Antiplatelet activity, 50% Inhibitory concentration, Collagen
IC50 (platelet aggregation; [2]) [µM],IC50 (platelet aggregation; [3]) [µM],IC50 (platelet aggregation; [4]) [µM],Compound,half life in the living body [1],"IC50 (platelet aggregation; read-out: Antiplatelet activity, 50% Inhibitory concentration, ADP) [µM]","IC50 (platelet aggregation; read-out: Antiplatelet activity, 50% Inhibitory concentration, Arachidonic acid) [µM]","IC50 (platelet aggregation; read-out: Antiplatelet activity, 50% Inhibitory concentration, Collagen) [µM]"
0.52,0.47,0.32,"CCCCC[C@H](O)/C=C/[C@@H]1[C@H]2CC(/C=C/C=C/C(=O)O)=C[C@H]2C[C@H]1O [Example 1, 3-(4-carboxy-trans, trans-1,3-butadienyl)-6-exo-(3α-hydroxy-trans-1-octenyl)-7-endo-hydroxybicyclo[3.3.0]oct-2-ene]",–,–,–,–
470,≥ 1000,–,"OCCN(CCO)c1nc(N2CCCCC2)c2nc(N(CCO)CCO)nc(N3CCCCC3)c2n1 [dipyridamol, reference compound]",–,–,–,–
0.38,0.25,0.22,"CCCCC[C@H](O)/C=C/[C@@H]1[C@H]2C/C(=C/CCCC(=O)O)O[C@H]2C[C@H]1O [prostaglandin I2, reference compound]",short,–,–,–
1.4,1.8,1.1,O=C(O)/C=C/C=C/CC1=C[C@H]2C[C@@H](O)[C@H](/C=C/[C@@H](O)C3CCCC3)[C@H]2C1 [Example 9],–,–,–,–
–,–,–,"CC(=O)Oc1ccccc1C(=O)O [aspirin, reference compound]",–,≥ 1000,17,200
0.7,0.82,0.5,"CCCCC[C@H](O)/C=C/[C@@H]1[C@H]2CC(C/C=C/C=C/C(=O)O)=C[C@H]2C[C@H]1O [Example 6, 3-(5-carboxy-trans, trans-2,4-pentadienyl)-6-exo-(3α-hydroxy-trans-1-octenyl)-7-endo-hydroxybicyclo[3.3.0]oct-2-ene]",–,–,–,–
0.39,0.29,0.23,O=C(O)/C=C/C=C/C1=C[C@H]2C[C@@H](O)[C@H](/C=C/[C@@H](O)C3CCCC3)[C@H]2C1 [Example 4],–,–,–,–
